Reference: BindingDB's records for patent US20250195508 (University of Central Florida Research Foundation, 2025)

biological target: Ephrin type-A receptor 2 (Homo sapiens, UniProt P29317); assay: In Vitro Biochemical Kinase Assay
Text: In vitro biochemical kinase assays were done using recombinant human EPHA2. compounds were subjected to in vitro biochemical kinase assays done using recombinant human ephrin type-A receptor 2 (EPHA2) (expressed in insect cells) in a Z′-LYTE FRET-based kinase assay.

Sequence of Ephrin type-A receptor 2 (P29317 whole entry): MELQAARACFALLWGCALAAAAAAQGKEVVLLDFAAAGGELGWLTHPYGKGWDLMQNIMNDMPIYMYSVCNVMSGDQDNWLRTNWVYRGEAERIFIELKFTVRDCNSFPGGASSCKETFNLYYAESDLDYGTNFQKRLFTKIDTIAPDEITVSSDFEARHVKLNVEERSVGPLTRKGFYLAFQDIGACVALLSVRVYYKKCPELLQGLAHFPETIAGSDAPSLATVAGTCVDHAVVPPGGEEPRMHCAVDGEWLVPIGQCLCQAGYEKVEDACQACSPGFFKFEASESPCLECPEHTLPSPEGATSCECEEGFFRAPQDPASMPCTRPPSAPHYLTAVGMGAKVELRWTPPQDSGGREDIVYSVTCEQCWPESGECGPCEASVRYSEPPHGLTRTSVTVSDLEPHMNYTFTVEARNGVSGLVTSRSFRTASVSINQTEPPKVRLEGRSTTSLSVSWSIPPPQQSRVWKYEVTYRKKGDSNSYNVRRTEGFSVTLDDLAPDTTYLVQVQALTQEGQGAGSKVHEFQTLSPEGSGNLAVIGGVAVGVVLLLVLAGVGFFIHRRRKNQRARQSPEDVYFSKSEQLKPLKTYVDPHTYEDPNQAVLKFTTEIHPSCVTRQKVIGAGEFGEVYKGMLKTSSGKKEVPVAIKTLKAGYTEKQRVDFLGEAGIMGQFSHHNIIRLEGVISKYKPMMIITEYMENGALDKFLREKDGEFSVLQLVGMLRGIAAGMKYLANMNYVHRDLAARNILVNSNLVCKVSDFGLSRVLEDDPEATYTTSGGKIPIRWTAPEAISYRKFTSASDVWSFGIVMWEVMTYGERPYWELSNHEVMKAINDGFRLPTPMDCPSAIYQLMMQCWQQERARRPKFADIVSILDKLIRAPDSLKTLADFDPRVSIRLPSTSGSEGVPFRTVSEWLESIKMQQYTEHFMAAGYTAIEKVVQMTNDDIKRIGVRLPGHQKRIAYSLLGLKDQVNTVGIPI

Row | SMILES | IC50
1 | CCN1CCN(Cc2ccc(NC(=O)c3cc(NC(=O)c4cncc(-c5cccs5)c4)cc(OC)c3)cc2C(F)(F)F)CC1 [MLS000911581] | > 10 µM
2 | CCN1CCN(Cc2ccc(NC(=O)c3cncc(NC(=O)c4cncc(-c5cccs5)c4)c3)cc2C(F)(F)F)CC1 [US20250195508, Name TL5-139] | > 10 µM
3 | CCN1CCN(Cc2ccc(NC(=O)c3ccnc(NC(=O)c4cncc(-c5cccs5)c4)c3)cc2C(F)(F)F)CC1 [US20250195508, Name TL5-145] | > 10 µM
